Values joined by “and” are separate entries in the source; they are usually repeats but may differ in a detail not shown here. Identical values can stand only once.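 48-hour exposure; five concentrations; linearly interpolated endpoints. GI50 = concentration required for 50% inhibition of growth. TGI: total growth inhibition.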
Assays:
Assay in all cases: NCI tumour cell line growth inhibition, 48 h
[1] = system: HCC-2998 colon
[2] = system: HCT-116 colon
[3] = system: HCT-15 colon
[4] = system: IGROV1 ovarian
[5] = system: LOX IMVI melanoma
[6] = system: MDA-MB-231 breast
[7] = system: RXF 393 renal
[8] = system: SF-295 CNS
[9] = system: U251 CNS
[10] = system: SNB-75 CNS

SMILES | TGI [1] | TGI [2] | TGI [3] | TGI [4] | TGI [5] | TGI [6] [µM] | TGI [7] [µM] | TGI [8] | TGI [9] | TGI [10] | GI50 [1]
O=P(O)(O)C(N=C(Nc1ccccc1)Nc1ccccc1)P(=O)(O)O | > 100 µM | > 100 µM | > 100 µM | > 100 µM | > 100 µM | > 100 | > 100 | > 100 µM |  |  | 
CSc1cc(-c2cccs2)sc1-c1cc(SC)c(-c2sc(-c3sc(-c4cccs4)cc3SC)cc2SC)s1 | > 100 µM | > 100 µM | > 100 µM | > 100 µM | > 100 µM | > 100 | > 100 | > 100 µM | > 100 µM |  | 
O=C1c2cc(-c3ccccc3)cnc2S(=O)(=O)N1c1ccc(Br)cc1 | 39.5 µM | > 100 µM | > 100 µM | > 100 µM | > 100 µM | > 100 |  | 38.5 µM | 90.3 µM | 78.8 µM | 
O=C(O)CN1CCNCCN(CC(=O)O)CCN(CC(=O)O)CCNCC1 |  | > 100 µM | > 100 µM | > 100 µM | > 100 µM | > 100 |  | > 100 µM | > 100 µM | > 100 µM | 
Cc1nn(-c2ccccc2)c2c1C(c1cc3ccccc3nc1Cl)NC(=O)N2 (centres undefined) |  | 84.6 µM | 48.1 µM | 24.9 µM | 44.8 µM | 59.3 | 55.9 | 55.8 µM | 38.2 µM | 50.2 µM | 
CCCCCCCCCCCCCCCCNc1cccc2ccccc12 | > 100 µM | > 100 µM | > 100 µM | > 100 µM | > 100 µM |  | > 100 | > 100 µM | > 100 µM | > 100 µM | 
COc1ccc(C2c3cn[nH]c3CC3CCCCC32)cc1 (centres undefined) | 35 µM | 31.7 µM | 31.7 µM | 26.6 µM | 31.8 µM | 30.4 |  |  | 28.9 µM | 27.2 µM | 
O=c1[nH][nH]c(=O)n1CCCCCCn1c(=O)[nH][nH]c1=O | > 100 µM | > 100 µM | > 100 µM |  | > 100 µM | > 100 | > 100 |  | > 100 µM | > 100 µM | 
O=C(CCn1ccnc1[N+](=O)[O-])NCCCn1ccnc1[N+](=O)[O-] |  | > 100 µM | > 100 µM | > 100 µM | > 100 µM | > 100 | > 100 | > 100 µM | > 100 µM | > 100 µM | 
Cc1c(O)nc(-n2[nH]c3c(c2=O)CCCC3)[nH]c1=O |  | > 100 µM | > 100 µM | > 100 µM |  | > 100 | > 100 | > 100 µM | > 100 µM |  | 
CSC1=N/C(=C\c2ccc(C)cc2)C(=O)N1CN1CCCCC1 |  | > 100 µM | > 100 µM | > 100 µM | > 100 µM | > 100 |  | > 100 µM | > 100 µM | > 100 µM | 
COc1cc(O)c2c(c1)C(=O)c1cc3c(c(O)c1C2=O)C(OC1OC(C)C(OC)C(O)C1OC)C(OC)C(C)(O)C3=O (centres undefined) | 17.4 µM | 14.6 µM | 15.8 µM | 6.5 µM | 12.4 µM | 27.3 |  | 18.3 µM | 22.8 µM | 16 µM | 
C=CCc1cc(-c2nc(=S)[nH][nH]2)ccc1N=NNc1ccc(C(=O)O)cc1 |  | > 100 µM | > 100 µM | > 100 µM | > 100 µM | > 100 | > 100 | > 100 µM | > 100 µM | > 100 µM | 
Cc1ccc(/C=N\NC2c3cc(Cl)ccc3Nc3nc(=O)[nH]c(C)c32)cc1 (centres undefined) | > 100 µM | > 100 µM |  | > 100 µM | > 100 µM |  | > 100 | > 100 µM | > 100 µM | > 100 µM | 
O=C(O)[C@H]1CCCN1CP(=O)(O)CN1CCC[C@@H]1C(=O)O |  | > 100 µM | > 100 µM | > 100 µM | > 100 µM | > 100 | > 100 | > 100 µM | > 100 µM | > 100 µM | 
Cc1cccc(C)c1NC(=O)C(Cc1c[nH]c2ccccc12)NC(=O)OCc1ccccc1 (centres undefined) |  | > 100 µM | > 100 µM | 73 µM | 53.8 µM | 48.2 | 36.4 | 38.9 µM | 47.2 µM | 48.2 µM | 
C[N+](C)([O-])CCOc1cc2c(c3ccccc13)-c1ccccc1C2=O | 29.2 µM | > 68 µM | > 100 µM | 99.8 µM | > 47.4 µM |  | 33.2 | > 72.1 µM | 25.8 µM | 53.2 µM | 
On1c(-c2ccccc2)c(-c2ccccc2N2CCCC2)c2ccccc21 | > 100 µM | > 100 µM | > 100 µM | > 100 µM | > 100 µM |  |  | > 100 µM | > 100 µM | > 100 µM | 

SMILES | TGI [1] | TGI [2] | TGI [3] | TGI [4] | TGI [5] | TGI [6] [µM] | TGI [7] [µM] | TGI [8] | TGI [9] | TGI [10] | GI50 [1]
N#CNC(=NCc1ccccc1)N(Cc1ccccc1)Cc1ccccc1 | > 100 µM | > 31.6 µM | > 31.6 µM | > 31.6 µM | > 31.6 µM | 85.3 | > 100 | 29 µM | > 31.6 µM |  | 
CCOC(=O)C1S/C(=N\C(=N)N[N+](=O)[O-])N=C1C (centres undefined) | > 100 µM | > 100 µM | > 100 µM | > 100 µM | > 100 µM |  | > 100 | > 100 µM | > 100 µM | > 100 µM | 
COC(C)(C)C1(O)CC[C@@H](C)CC1=O (some centres undefined) | > 100 µM | > 100 µM | > 100 µM | > 100 µM |  |  | > 100 | > 100 µM | > 100 µM | > 100 µM | 
CC(c1ccccc1)N1CCN(C(C)c2ccccc2)CC1 (centres undefined) | 44.6 µM | > 100 µM | > 100 µM | > 100 µM | > 100 µM | > 100 | > 100 | > 100 µM | > 100 µM |  | 
COc1ccc(C(=O)/C=C/c2ccc(OCCCOc3ccc(/C=C/C(=O)c4ccc(OC)cc4)cc3)cc2)cc1 | > 100 µM | > 100 µM | > 100 µM | > 100 µM |  | > 100 | > 100 | > 100 µM | > 100 µM | > 100 µM | 
Cc1c(/C=N\NC(=S)NCCNC(=S)N/N=C\c2c(C)n(C)n(-c3ccccc3)c2=O)c(=O)n(-c2ccccc2)n1C | > 100 µM | > 100 µM | > 100 µM |  |  | > 100 | > 100 | > 100 µM | > 100 µM | > 100 µM | 
C=C1CC(C#N)(C#N)[C@H]2C3CCCC3C[C@@H]12 (some centres undefined) (tested in a mixture with another compound) |  | 19.4 µM | 32.8 µM | > 100 µM |  | 55.2 | 41.7 | 39.4 µM | 40.4 µM |  | 
CNc1cc2c(c3ccccc13)C(CCl)CN2C(=O)c1cc2cc(OC)c(OC)c(OC)c2[nH]1 (centres undefined) |  |  |  | 0.128 µM | 0.00811 µM |  |  |  | 0.133 µM | 0.00802 µM | 
Cc1ccc(C2=CC(=O)OC(C[P+](c3ccccc3)(c3ccccc3)c3ccccc3)(c3ccccc3)O2)cc1 (centres undefined) | 38.2 µM | 29.2 µM | 42.8 µM | 27.4 µM |  | 82.3 | 73.2 | 45.5 µM | 34.8 µM | 36.2 µM | 
COC(=O)C(Cc1ccc2c(c1)CCC2)Cc1ccc2c(c1)CCC2 |  | > 100 µM | > 100 µM | > 100 µM | 60.4 µM | > 100 | > 100 | > 100 µM | > 100 µM | > 100 µM | 
O=C(NCP(=O)(Oc1ccccc1)Oc1ccccc1)OCc1ccccc1 |  |  | > 100 µM | > 100 µM | > 100 µM |  |  | > 100 µM | > 100 µM | > 100 µM | 
O=C(O)COc1ccccc1C(=O)Nc1ccccc1 |  | > 100 µM | > 100 µM | > 100 µM | > 100 µM |  |  | > 100 µM | > 100 µM | > 100 µM | 
COc1ccc(C2OC(c3ccncc3)=NN2C)cc1F (centres undefined) | > 100 µM | > 100 µM | > 100 µM | > 100 µM | > 100 µM | > 100 | > 100 | > 100 µM | > 100 µM |  | 
O=C1OCC/C1=N/O | > 100 µM | > 100 µM | > 100 µM | > 100 µM |  |  | > 100 | > 100 µM | > 100 µM | > 100 µM | 
CCOC(=O)N1CCC(N[C@@H]2c3cc4c(cc3C(c3cc(OC)c(O)c(OC)c3)C3C(=O)OC[C@@H]32)OCO4)CC1 (some centres undefined) | 6.82 µM and 7.22 µM | 22.3 µM and 11 µM | 2.97 µM and 4.43 µM | 13.6 µM and 9.21 µM | 7.97 µM and 12.4 µM |  |  | 2.53 µM and 2.42 µM | 6.51 µM and 8.32 µM | 15.2 µM and 24.8 µM | 1.53 µM and 3.47 µM
O=C(O)CN1CCN2CCCCCN(CC1)CCN(CC(=O)O)CC2 |  | > 100 µM | > 100 µM | > 100 µM | > 100 µM | > 100 |  | > 100 µM | > 100 µM | 95.3 µM | 
CC(C)SC(=S)Sc1c(Cl)c(Cl)nc(Cl)c1Cl | 12.7 µM | 22.4 µM | > 34.1 µM | 20.1 µM | 6.68 µM | 26.7 | 9.17 | 30.5 µM | 14 µM |  | 
O=C(O)C(Cl)(Cl)Cl | > 100 µM | > 100 µM | > 100 µM | > 100 µM | > 100 µM |  | > 100 | > 100 µM | > 100 µM | > 100 µM | 
